Like-named read-outs stand apart in the source and are kept apart here. Bridge positions count the residues as written; N and C are the ends. Square brackets hold non-standard residues; d marks the D form. Peptide text beside a SMILES is read from it. Nle = CCCC[C@H](N)C(=O)O
Test system: rat anterior pituitary cells
Assay: In vitro stimulation of ACTH and β-endorphin secretion by cultured rat pituitary cells, potency compared with oCRF (Standard) or r/hCRF
Format: cell-based
Conditions: for in vitro biopotency, comparison in words: compared with the Standard or with a named analog
Procedure: The cyclic CRF agonists are examined for their effects on the secretion of ACTH and β-endorphin in vitro and also in vivo. […] In vivo testing is carried out using the general procedure set forth in C. Rivier et al., Science, 218, 377 (1982).

[1] = relative to the laboratory Standard (synthetic oCRF), cultured rat pituitary cells, limits in parentheses

CC[C@H](C)[C@H](NC(=O)[C@@H]1CCCN1C(=O)[C@@H]1CCCN1C(C)=O)C(=O)N[C@@H](CO)C(=O)N[C@@H](CC(C)C)C(=O)N[C@@H](CC(=O)O)C(=O)N[C@@H](CC(C)C)C(=O)N[C@H](C(=O)N[C@H](Cc1ccccc1)C(=O)N[C@@H](Cc1c[nH]cn1)C(=O)N[C@@H](CC(C)C)C(=O)N[C@@H](CC(C)C)C(=O)N[C@@H](CCCNC(=N)N)C(=O)N[C@@H](CCC(=O)O)C(=O)N[C@@H](CCSC)C(=O)N[C@@H](CC(C)C)C(=O)N[C@@H](CCC(=O)O)C(=O)N[C@@H](CCSC)C(=O)N[C@@H](C)C(=O)N[C@@H](CCCCN)C(=O)N[C@@H](C)C(=O)N[C@@H](CCC(=O)O)C(=O)N[C@@H](CCC(N)=O)C(=O)N[C@@H](CCC(=O)O)C(=O)N[C@@H](C)C(=O)N[C@@H](CCC(=O)O)C(=O)N[C@H]1CCC(=O)NCCCC[C@@H](C(=O)N[C@@H](CC(N)=O)C(=O)N[C@@H](CCCNC(=N)N)C(=O)N[C@@H](CC(C)C)C(=O)N[C@@H](CC(C)C)C(=O)N[C@@H](CC(C)C)C(=O)N[C@@H](CCC(=O)O)C(=O)N[C@@H](CCC(=O)O)C(=O)N[C@@H](C)C(N)=O)NC(=O)[C@H](C)NC(=O)[C@H](C)NC1=O)[C@@H](C)O [(cyclo 30-33)[Ac-Pro^4, D-Phe^12, Glu^30, Lys^33]-AHC(4-41)] (Ac-PPISLDLT[dF]HLLREMLEMAKAEQEAEEAAKNRLLLEEA-NH2; lactam 27-30)
in vitro potency to stimulate secretion of ACTH relative to the Standard [1]: about 7.5 times

CCCC[C@H](NC(=O)[C@H](CCCCN)NC(=O)[C@H](CCCNC(=N)N)NC(=O)[C@H](CC(C)C)NC(=O)[C@H](CC(C)C)NC(=O)[C@H](CCC(=O)O)NC(=O)[C@@H](CC(C)C)NC(=O)[C@H](CO)NC(=O)[C@H](CC(C)C)NC(=O)[C@H](CC(=O)O)NC(=O)[C@@H](NC(=O)[C@H](CO)NC(C)=O)[C@@H](C)CC)C(=O)N[C@H](C(=O)N[C@@H](CCC(=O)O)C(=O)N[C@H](C(=O)N[C@@H](CCC(=O)O)C(=O)N[C@@H](CCCCN)C(=O)N[C@@H](CCC(N)=O)C(=O)N[C@@H](CCC(=O)O)C(=O)N[C@@H](CCCCN)C(=O)N[C@@H](CCC(=O)O)C(=O)N[C@@H](CCCCN)C(=O)N[C@@H](CCC(N)=O)C(=O)N[C@H]1CCC(=O)NCCCC[C@@H](C(=O)N[C@@H](CC(N)=O)C(=O)N[C@@H](CCCNC(=N)N)C(=O)N[C@@H](CC(C)C)C(=O)N[C@@H](CC(C)C)C(=O)N[C@@H](CC(C)C)C(=O)N[C@@H](CC(=O)O)C(=O)N[C@H](C(=O)N[C@H](C(N)=O)[C@@H](C)CC)[C@@H](C)O)NC(=O)[C@@H](C)NC(=O)[C@H](C)NC1=O)[C@@H](C)CC)[C@@H](C)CC [Example 16 C D-Ala^31 analog] (Ac-SIDLS[dL]ELLRK[Nle]IEIEKQEKEKQEA[dA]KNRLLLDTI-NH2; lactam 24-27)
in vitro biopotency, comparison in words: shows increased biopotency

CCCC[C@H](NC(=O)[C@H](CCC(=O)O)NC(=O)[C@H](CC(C)C)NC(=O)[C@H](CCCC)NC(=O)[C@H](CCC(=O)O)NC(=O)[C@H](CCCNC(=N)N)NC(=O)[C@H](CC(C)C)NC(=O)[C@H](CC(C)C)NC(=O)[C@H](Cc1c[nH]cn1)NC(=O)[C@@H](Cc1ccccc1)NC(=O)[C@@H](NC(=O)[C@H](CC(C)C)NC(=O)[C@H](CC(=O)O)NC(=O)[C@H](CC(C)C)NC(=O)[C@H](CO)NC(=O)[C@@H](NC(=O)[C@H]1CCCN1C(=O)[C@@H]1CCCN1C(C)=O)[C@@H](C)CC)[C@@H](C)O)C(=O)N[C@@H](C)C(=O)N[C@@H](CCCCN)C(=O)N[C@@H](C)C(=O)N[C@@H](CCC(=O)O)C(=O)N[C@@H](CCC(N)=O)C(=O)N[C@@H](CCC(=O)O)C(=O)N[C@@H](C)C(=O)N[C@@H](CCC(=O)O)C(=O)N[C@H]1CCC(=O)NCCCC[C@@H](C(=O)N[C@@H](CC(N)=O)C(=O)N[C@@H](CCCNC(=N)N)C(=O)N[C@@H](CC(C)C)C(=O)N[C@@H](CC(C)C)C(=O)N[C@@H](CC(C)C)C(=O)N[C@@H](CCC(=O)O)C(=O)N[C@@H](CCC(=O)O)C(=O)N[C@@H](C)C(N)=O)NC(=O)[C@@H](C)NC(=O)[C@H](C)NC1=O [Example 8 C D-Ala^32 analog] (Ac-P[dP]ISLDLT[dF]HLLRE[Nle]LE[Nle]AKAEQEAEEA[dA]KNRLLLEEA-NH2; lactam 27-30)
in vitro potency to stimulate secretion of ACTH relative to the Standard: about 6.35 times

CCCC[C@H](NC(=O)[C@H](CCC(=O)O)NC(=O)[C@@H](NC(=O)[C@H](CCCC)NC(=O)[C@H](CC(N)=O)NC(=O)[C@H](CCCNC(=N)N)NC(=O)[C@H](CC(C)C)NC(=O)[C@H](CC(C)C)NC(=O)[C@H](Cc1c[nH]cn1)NC(=O)[C@@H](Cc1ccccc1)NC(=O)[C@@H](NC(=O)[C@H](CC(C)C)NC(=O)[C@H](CC(=O)O)NC(=O)[C@@H](NC(=O)[C@H](CO)NC(=O)[C@@H](NC(=O)[C@H]1CCCN1C(=O)[C@@H]1CCCN1C(C)=O)[C@@H](C)CC)[C@@H](C)CC)[C@@H](C)O)[C@@H](C)CC)C(=O)N[C@@H](C)C(=O)N[C@@H](CCCNC(=N)N)C(=O)N[C@@H](CC(N)=O)C(=O)N[C@@H](CCC(=O)O)C(=O)N[C@@H](CC(N)=O)C(=O)N[C@@H](CCC(N)=O)C(=O)N[C@@H](CCCNC(=N)N)C(=O)N[C@@H](CCC(=O)O)C(=O)N[C@H]1CCC(=O)NCCCC[C@@H](C(=O)N[C@@H](CC(N)=O)C(=O)N[C@@H](CCCNC(=N)N)C(=O)N[C@@H](CCCCN)C(=O)N[C@@H](Cc2ccc(O)cc2)C(=O)N[C@@H](CC(C)C)C(=O)N[C@@H](CC(=O)O)C(=O)N[C@@H](CCC(=O)O)C(=O)N[C@H](C(N)=O)C(C)C)NC(=O)[C@@H](C)NC(=O)[C@H](C)NC1=O [Example 8 A D-Ala^32 analog] (Ac-P[dP]ISIDLT[dF]HLLRN[Nle]IE[Nle]ARNENQREEA[dA]KNRKYLDEV-NH2; lactam 27-30)
in vitro potency to stimulate secretion of ACTH relative to the Standard: about 4.9 times

CCCC[C@H](NC(=O)[C@H](CCC(=O)O)NC(=O)[C@H](CC(C)C)NC(=O)[C@H](CCCC)NC(=O)[C@H](CCC(=O)O)NC(=O)[C@H](CCCNC(=N)N)NC(=O)[C@H](CC(C)C)NC(=O)[C@H](CC(C)C)NC(=O)[C@H](Cc1c[nH]cn1)NC(=O)[C@@H](Cc1ccccc1)NC(=O)[C@@H](NC(=O)[C@H](CC(C)C)NC(=O)[C@H](CC(=O)O)NC(=O)[C@H](CC(C)C)NC(=O)[C@H](CO)NC(C)=O)[C@@H](C)O)C(=O)N[C@@H](C)C(=O)N[C@@H](CCCCN)C(=O)N[C@@H](C)C(=O)N[C@@H](CCC(=O)O)C(=O)N[C@@H](CCC(N)=O)C(=O)N[C@@H](CCC(=O)O)C(=O)N[C@@H](C)C(=O)N[C@@H](CCC(=O)O)C(=O)N[C@H]1CCC(=O)NCCCC[C@@H](C(=O)N[C@@H](CC(N)=O)C(=O)N[C@@H](CCCNC(=N)N)C(=O)N[C@@H](CC(C)C)C(=O)N[C@@H](CC(C)C)C(=O)N[C@@H](CC(C)C)C(=O)N[C@@H](CCC(=O)O)C(=O)N[C@@H](CCC(=O)O)C(=O)N[C@@H](C)C(N)=O)NC(=O)[C@@H](Cc2c[nH]cn2)NC(=O)[C@H](C)NC1=O [Example 16 A D-His^32 cyclic analog] (Ac-SLDLT[dF]HLLRE[Nle]LE[Nle]AKAEQEAEEA[dH]KNRLLLEEA-NH2; lactam 24-27)
in vitro biopotency, comparison in words: biopotency greater than the Standard peptide

CCCC[C@H](NC(=O)[C@H](CCC(=O)O)NC(=O)[C@H](CC(C)C)NC(=O)[C@H](CCCC)NC(=O)[C@H](CCC(=O)O)NC(=O)[C@H](CCCNC(=N)N)NC(=O)[C@H](CC(C)C)NC(=O)[C@H](CC(C)C)NC(=O)[C@H](Cc1c[nH]cn1)NC(=O)[C@@H](Cc1ccccc1)NC(=O)[C@@H](NC(=O)[C@H](CC(C)C)NC(=O)[C@H](CC(=O)O)NC(=O)[C@H](CC(C)C)NC(=O)[C@H](CO)NC(C)=O)[C@@H](C)O)C(=O)N[C@@H](C)C(=O)N[C@@H](CCCCN)C(=O)N[C@@H](C)C(=O)N[C@@H](CCC(=O)O)C(=O)N[C@@H](CCC(N)=O)C(=O)N[C@@H](CCC(=O)O)C(=O)N[C@@H](C)C(=O)N[C@@H](CCC(=O)O)C(=O)N[C@H]1CCC(=O)NCCCC[C@@H](C(=O)N[C@@H](CC(N)=O)C(=O)N[C@@H](CCCNC(=N)N)C(=O)N[C@@H](CC(C)C)C(=O)N[C@@H](CC(C)C)C(=O)N[C@@H](CC(C)C)C(=O)N[C@@H](CCC(=O)O)C(=O)N[C@@H](CCC(=O)O)C(=O)N[C@@H](C)C(N)=O)NC(=O)[C@H](C)NC(=O)[C@H](C)NC1=O [Example 16 A Ala^32 cyclic analog] (Ac-SLDLT[dF]HLLRE[Nle]LE[Nle]AKAEQEAEEAAKNRLLLEEA-NH2; lactam 24-27)
in vitro biopotency, comparison in words: biopotency greater than the Standard peptide

CCCC[C@H](NC(=O)[C@H](CCCCN)NC(=O)[C@H](CCCNC(=N)N)NC(=O)[C@H](CC(C)C)NC(=O)[C@H](CC(C)C)NC(=O)[C@H](CCC(=O)O)NC(=O)[C@@H](CC(C)C)NC(=O)[C@H](CO)NC(=O)[C@H](CC(C)C)NC(=O)[C@H](CC(=O)O)NC(=O)[C@@H](NC(=O)[C@H](CO)NC(=O)[C@@H](NC(=O)[C@H]1CCCN1C(=O)[C@@H]1CCCN1C(C)=O)[C@@H](C)CC)[C@@H](C)CC)C(=O)N[C@H](C(=O)N[C@@H](CCC(=O)O)C(=O)N[C@H](C(=O)N[C@@H](CCC(=O)O)C(=O)N[C@@H](CCCCN)C(=O)N[C@@H](CCC(N)=O)C(=O)N[C@@H](CCC(=O)O)C(=O)N[C@@H](CCCCN)C(=O)N[C@@H](CCC(=O)O)C(=O)N[C@@H](CCCCN)C(=O)N[C@@H](CCC(N)=O)C(=O)N[C@H]1CCC(=O)NCCCC[C@@H](C(=O)N[C@@H](CC(N)=O)C(=O)N[C@@H](CCCNC(=N)N)C(=O)N[C@@H](CC(C)C)C(=O)N[C@@H](CC(C)C)C(=O)N[C@@H](CC(C)C)C(=O)N[C@@H](CC(=O)O)C(=O)N[C@H](C(=O)N[C@H](C(N)=O)[C@@H](C)CC)[C@@H](C)O)NC(=O)[C@@H](C)NC(=O)[C@H](C)NC1=O)[C@@H](C)CC)[C@@H](C)CC [Example 8 B D-Ala^31 analog] (Ac-P[dP]ISIDLS[dL]ELLRK[Nle]IEIEKQEKEKQEA[dA]KNRLLLDTI-NH2; lactam 27-30)
in vitro potency to stimulate secretion of ACTH relative to the Standard [1]: about 2 times

— patent US5824771A, “Cyclic CRF agonists” (The Salk Institute for Biological Studies, priority 1997, dated 1998)
